From the NIST ThermoML archive (doi:10.1021/je900266h)
± gives the expanded uncertainty stated by the source.

Legend:
[1] = refractive index (Na D-line) (dimensionless); mn = molality of the nth substance listed, in mol/kg; details: 101 kPa, Liquid, Standard Abbe refractometry
[2] = refractive index (Na D-line) (dimensionless); details: 101.33 kPa, Liquid, Standard Abbe refractometry

O=S(=O)([O-])[O-].[Cu+2] [copper sulfate] + O
refractive index, [1]
Details	288.15 K	298.15 K	308.15 K	318.15 K
m1 = 0.1346	1.33752 ± 0.00041	1.33658 ± 0.00041	1.33528 ± 0.00041	1.33371 ± 0.00041
m1 = 0.3007	1.34217 ± 0.00041	1.34125 ± 0.00041	1.33987 ± 0.00041	1.33834 ± 0.00041
m1 = 0.4408	1.34604 ± 0.00041	1.3451 ± 0.00041	1.3436 ± 0.00041	1.34204 ± 0.00041
m1 = 0.5896	1.35008 ± 0.00041	1.34915 ± 0.00041	1.34753 ± 0.00041	1.34587 ± 0.00041
m1 = 0.7359	1.35392 ± 0.00042	1.35287 ± 0.00041	1.35129 ± 0.00041	1.34951 ± 0.00041
m1 = 0.859	1.35712 ± 0.00042	1.35606 ± 0.00042	1.35427 ± 0.00042	1.35249 ± 0.00042
m1 = 1.016	1.36104 ± 0.00042	1.36002 ± 0.00042	1.35816 ± 0.00042	1.35632 ± 0.00042
m1 = 1.179	1.3651 ± 0.00042	1.36398 ± 0.00042	1.36209 ± 0.00042	1.36027 ± 0.00042
m1 = 1.301	1.36803 ± 0.00042	1.367 ± 0.00042	1.365 ± 0.00042	1.36305 ± 0.00042
m1 = 1.456	–	1.3706 ± 0.00042	1.36872 ± 0.00042	1.36664 ± 0.00042
m1 = 1.579	–	–	1.37162 ± 0.00042	1.36952 ± 0.00042
m1 = 1.736	–	–	–	1.37296 ± 0.00042
m1 = 1.891	–	–	–	1.37632 ± 0.00042
m1 = 2.058	–	–	–	1.38013 ± 0.00042

CCO [ethanol]
[2]
Details	refractive index
288.15 K	1.36344 ± 0.00042
298.15 K	1.35922 ± 0.00042
308.15 K	1.35477 ± 0.00042
318.15 K	1.35068 ± 0.00042

O=S(=O)([O-])[O-].[Li+].[Li+] [lithium sulfate] + O
refractive index, [1]
Details	288.15 K	298.15 K	308.15 K	318.15 K
m1 = 0.252	1.3383 ± 0.00041	1.33727 ± 0.00041	1.33612 ± 0.00041	1.33446 ± 0.00041
m1 = 0.4681	1.34212 ± 0.00041	1.34096 ± 0.00041	1.33987 ± 0.00041	1.33812 ± 0.00041
m1 = 0.7337	1.34651 ± 0.00041	1.34534 ± 0.00041	1.34419 ± 0.00041	1.3426 ± 0.00041
m1 = 0.9917	1.35062 ± 0.00041	1.34944 ± 0.00041	1.34829 ± 0.00041	1.3467 ± 0.00041
m1 = 1.245	1.3544 ± 0.00041	1.35316 ± 0.00041	1.35198 ± 0.00041	1.35056 ± 0.00041
m1 = 1.468	1.35752 ± 0.00042	1.35628 ± 0.00042	1.35518 ± 0.00042	1.35375 ± 0.00042
m1 = 1.756	1.3614 ± 0.00042	1.36011 ± 0.00042	1.35905 ± 0.00042	1.35765 ± 0.00042
m1 = 1.757	1.36143 ± 0.00042	1.36015 ± 0.00042	1.35909 ± 0.00042	1.35767 ± 0.00042
m1 = 1.939	1.36365 ± 0.00042	1.36242 ± 0.00042	1.36134 ± 0.00042	1.35998 ± 0.00042
m1 = 2.124	1.36601 ± 0.00042	1.36472 ± 0.00042	1.36368 ± 0.00042	1.36227 ± 0.00042
m1 = 2.306	1.36812 ± 0.00042	1.36691 ± 0.00042	1.36574 ± 0.00042	1.36453 ± 0.00042
m1 = 2.542	1.3709 ± 0.00042	1.36964 ± 0.00042	1.3685 ± 0.00042	1.3672 ± 0.00042
m1 = 2.798	1.3736 ± 0.00042	1.37243 ± 0.00042	1.37124 ± 0.00042	1.37003 ± 0.00042
m1 = 2.983	1.37551 ± 0.00042	1.37442 ± 0.00042	1.37316 ± 0.00042	1.37206 ± 0.00042
m1 = 3.158	1.37704 ± 0.00042	–	–	–
m1 = 3.22	1.37774 ± 0.00042	–	–	–
